Results reported in paper PMC6889161, “Inhibitory characteristics of flavonol-3-O-glycosides from Polygonum aviculare L. (common knotgrass) against porcine pancreatic lipase” (Scientific Reports, 2019).

What was measured:
pancreatic lipase (PL) = system: T1, pancreatic lipase (PL); assay: Fluorescence emission spectroscopy (tryptophan fluorescence quenching of PL); type: binding, porcine; conditions: for kq (bimolecular quenching constant): calculated from KSV with τ0 = 1.59 ns; for KSV (Stern-Volmer quenching constant): excitation 295 nm, 40 µM PL; for KA (binding constant) / n (number of binding sites): double-logarithmic equation
T1 construct: purchased Sigma-Aldrich Co. (St. Louis, MO, USA); host or cells: porcine pancreas (tissue preparation)
Method: The fluorescence spectra of PL in the presence of the sample were measured on a SpectraMax® i3 Multi-Mode Microplate Reader (Molecular Devices) as described previously with slight modification. In brief, aliquots of the sample solution at various concentrations (0−100 µM) were added into 40 µM of PL solution. The mixture was incubated for 30 min at 25 °C and 37 °C, and the fluorescence emission spectra were measured in the range of 315−400 nm upon excitation at 295 nm. The excitation and emission slit widths were set at 9 and 15 nm, respectively. The fluorescence data were analyzed by fitting to the Stern-Volmer equation for analysis of fluorescence quenching[23]:4 F0/F=1+KSV[Q]=1+kqτ0[Q] where F0 and F is the fluorescence intensity in the absence and presence of quencher, respectively, kq is the bimolecular quenching constant, τ0 is the lifetime of fluorescence in the absence of quencher, KSV is the Stern-Volmer quenching constant, and [Q] is the concentration of quencher. KSV was obtained from the slope of a plot of F0/F versus [Q] by linear regression curve fitting, and kq was calculated by KSV, where τ0 is equal to 1.59 ns[31]. The binding constant (KA) and number of binding sites (n) were obtained according to a double-logarithmic equation[32]:5 logF0−F/F=logKA+nlog[Q]

[1] = molecular target: T2, Lipase from porcine pancreas type II (pancreatic lipase) (Sus scrofa, UniProt P00591); assay: Pancreatic lipase inhibition assay (4-MUO substrate, fluorescence); type: biochemical; conditions: for Inhibition mode (type of inhibition): Lineweaver-Burk plots at 50 μM and 100 μM of compound; for IC50: from RRA of PL at various concentrations, nonlinear regression
T2 construct: purchased Sigma-Aldrich Co. (St. Louis, MO, USA); host or cells: porcine pancreas (tissue preparation)
T2 sequence (P00591 1-450): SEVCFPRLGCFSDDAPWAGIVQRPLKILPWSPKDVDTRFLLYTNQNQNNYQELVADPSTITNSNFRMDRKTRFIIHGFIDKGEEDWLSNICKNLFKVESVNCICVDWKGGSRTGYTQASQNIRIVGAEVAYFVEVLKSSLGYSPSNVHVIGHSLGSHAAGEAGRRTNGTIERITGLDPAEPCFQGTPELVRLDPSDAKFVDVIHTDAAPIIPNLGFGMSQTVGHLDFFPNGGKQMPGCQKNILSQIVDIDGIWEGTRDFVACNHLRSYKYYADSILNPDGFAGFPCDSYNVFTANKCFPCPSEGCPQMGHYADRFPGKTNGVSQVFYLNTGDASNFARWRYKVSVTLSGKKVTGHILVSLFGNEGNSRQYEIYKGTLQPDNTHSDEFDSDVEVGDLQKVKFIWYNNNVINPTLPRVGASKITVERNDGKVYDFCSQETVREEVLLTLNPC
Method: The PL assay using 4-MUO as a substrate was conducted as described previously with slight modification[28],[29]. Lipase from porcine pancreas type II (i.e., pancreatic lipase) was dissolved in 50 mM Tris-HCl buffer (pH 8.0) to give 10 mg/mL, and centrifuged at 5,000 g for 10 min to remove insoluble material before the enzyme assay. Then, 50 µL of 0.5 mM 4-MUO solution dissolved in the above buffer and 100 µL of the sample solution dissolved in methanol (i.e., the inhibitor solution) were mixed in 96-well microplate to form the reaction system. The enzymatic hydrolysis was initiated by adding 50 µL of the PL solution to the reaction system (final 250 units/mL) at 37 °C. […] The inhibitory activities against PL were calculated for comparison with each other, as follows:1 Inhibition(%)=A0−AS/A0×100 where A0 is the relative fluorescence unit after the reaction for 30 min in the absence of sample (i.e., only methanol) and AS is the fluorescence unit in the presence of sample.
To determine the IC50, the RRA of PL in the presence of the sample at various concentrations was evaluated. The reaction of PL was measured by the same procedure described above, and the RRA was calculated from the following equation:2 Relativeresidualactivity(%)=vS/v0×100 where ν0 is the initial velocity of the reaction in the absence of sample (i.e., only methanol) and νS is the initial velocity in the presence of sample. […] The type of inhibition was elucidated by evaluating the changes of kinetic parameters from Lineweaver-Burk plot as follows:3 1/v=Km/Vmax1/[S]+1/Vmax where [S] is the concentration of substrate, v is the initial velocity of the reaction, Vmax is the maximum initial velocity when substrate approaches infinite concentration, and Km is the dissociation constant of the enzyme-substrate complex (i.e., the Michaelis constant).

Row | Molecule | kq (bimolecular quenching constant) (pancreatic lipase (PL); 25 °C) | KSV (Stern-Volmer quenching constant) (pancreatic lipase (PL); 25 °C) | kq (bimolecular quenching constant) (pancreatic lipase (PL); 37 °C) | KA (binding constant) (pancreatic lipase (PL); 37 °C) | n (number of binding sites) (pancreatic lipase (PL); 37 °C) | KSV (Stern-Volmer quenching constant) (pancreatic lipase (PL); 37 °C) | KA (binding constant) (pancreatic lipase (PL)) [M⁻¹] | Inhibition mode (type of inhibition) [1] | IC50 [1] [µM]
1 | O=c1c(O[C@@H]2O[C@@H](CO)[C@H](O)[C@H]2O)c(-c2ccc(O)c(O)c2)oc2cc(O)cc(O)c12 [Avicularin, quercetin-3-O-α-L-arabinofuranoside] | 3.52 10^12 M^−1s^−1 | 0.56 10^4 M^−1 | 3.71 10^12 M^−1s^−1 | 0.94 10^4 M^−1 | 1.1119 | 0.59 10^4 M^−1 | 9400 | non-competitive or mixed-type inhibition | 142
2 | O=c1c(O)c(-c2ccc(O)cc2)oc2cc(O)cc(O)c12 [Kaempferol] | 7.67 10^12 M^−1s^−1 | 1.22 10^4 M^−1 | 6.48 10^12 M^−1s^−1 | 2.07 10^4 M^−1 | 1.1103 | 1.03 10^4 M^−1 | 20700 | competitive inhibition | 79.4
3 | O=c1c(O)c(-c2ccc(O)c(O)c2)oc2cc(O)cc(O)c12 [Quercetin] | 6.29 10^12 M^−1s^−1 | 1.00 10^4 M^−1 | 5.91 10^12 M^−1s^−1 | 3.57 10^4 M^−1 | 1.1471 | 0.94 10^4 M^−1 | 35700 | competitive inhibition | –
4 | C[C@@H]1O[C@@H](Oc2c(-c3ccc(O)c(O)c3)oc3cc(O)cc(O)c3c2=O)[C@H](O)[C@H](O)[C@H]1O [Quercitrin, quercetin-3-O-α-L-rhamnopyranoside] | 8.05 10^12 M^−1s^−1 | 1.28 10^4 M^−1 | 8.30 10^12 M^−1s^−1 | 1.00 10^4 M^−1 | 0.9760 | 1.32 10^4 M^−1 | 10000 | non-competitive or mixed-type inhibition | 101
5 | myricetin-3-O-α-L-rhamnopyranoside [Myricitrin] | 7.48 10^12 M^−1s^−1 | 1.19 10^4 M^−1 | 7.74 10^12 M^−1s^−1 | 1.45 10^4 M^−1 | 1.0228 | 1.23 10^4 M^−1 | 14500 | non-competitive or mixed-type inhibition | –
